Reference: PubChem BioAssay (NCI)
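96-well plates; 48 h exposure; 5 concentrations. Endpoints by linear interpolation between flanking doses. Not reached: highest tested concentration assigned. The concentration for full growth arrest is given as TGI.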

Experiments:
Experiment in all cases: NCI anticancer screen, dose series, 48 h
[1] = test system: SK-MEL-28 melanoma
[2] = test system: MALME-3M melanoma
[3] = test system: COLO 205 colon
[4] = test system: HCC-2998 colon
[5] = test system: SN12C renal
[6] = test system: 786-0 renal
[7] = test system: IGROV1 ovarian
[8] = test system: EKVX NSCLC
[9] = test system: SK-MEL-2 melanoma
[10] = test system: UACC-257 melanoma
[11] = test system: OVCAR-3 ovarian
[12] = test system: HCT-116 colon
[13] = test system: MDA-N
[14] = test system: SR leukemia
[15] = test system: DU-145 prostate
[16] = test system: HS 578T breast
[17] = test system: SF-539 CNS
[18] = test system: RPMI-8226 leukemia
[19] = test system: OVCAR-5 ovarian
[20] = test system: A498 renal
[21] = test system: HOP-92 NSCLC
[22] = test system: MDA-MB-231 breast
[23] = test system: HT29 colon
[24] = test system: NCI-H226 lung
[25] = test system: SF-268 CNS
[26] = test system: OVCAR-8 ovarian
[27] = test system: HOP-62 NSCLC
[28] = test system: ACHN renal
[29] = test system: SK-OV-3 ovarian
[30] = test system: MDA-MB-435
[31] = test system: MOLT-4 leukemia
[32] = test system: BT-549 breast
[33] = test system: A549 NSCLC
[34] = test system: U251 CNS
[35] = test system: NCI-H460 lung
[36] = test system: M14 melanoma
[37] = test system: K-562 leukemia
[38] = test system: UACC-62 melanoma
[39] = test system: HL-60(TB) leukemia
[40] = test system: NCI-H522 lung
[41] = test system: CAKI-1 renal
[42] = test system: UO-31 renal
[43] = test system: MCF7 breast
[44] = test system: SW-620 colon
[45] = test system: PC-3 prostate
[46] = test system: SK-MEL-5 melanoma
[47] = test system: HCT-15 colon
[48] = test system: RXF 393 renal
[49] = test system: SNB-19 CNS
[50] = test system: NCI-H23 lung
[51] = test system: LOX IMVI melanoma
[52] = test system: TK-10 renal
[53] = test system: SNB-75 CNS
[54] = test system: CCRF-CEM leukemia
[55] = test system: T-47D breast
[56] = test system: KM12 colon
[57] = test system: OVCAR-4 ovarian
[58] = test system: SF-295 CNS
[59] = test system: NCI/ADR-RES ovarian

Work on `COC(=O)CCC(=O)NC1=C(Nc2ccccc2)C(=O)c2ccccc2C1=O` yielded a TGI [1] of 17.7 µM, a TGI [2] of 5.61 µM and a TGI [3] of 35.3 µM. It also gave a TGI [4] of 37.9 µM, a TGI [5] of 28.9 µM and a TGI [6] of 25.4 µM. For the same compound, the TGI [7] was 26 µM, the TGI [8] was 34.2 µM and the TGI [9] was 16.4 µM. For the same compound, the TGI [10] was 9.76 µM, the TGI [11] was 10.4 µM and the TGI [12] was 23 µM. For the same compound, the TGI [13] was 3.59 µM, the TGI [14] was 56.7 µM and the TGI [15] was 23.2 µM. It also gave a TGI [16] of 32.7 µM, a TGI [17] of 29.1 µM and a TGI [18] of 52.3 µM. It also gave a TGI [19] of 19.7 µM, a TGI [20] of 28.6 µM and a TGI [21] of 31.7 µM. For the same compound, the TGI [22] was 30.1 µM, the TGI [23] was 35.7 µM and the TGI [24] was 28.6 µM. The TGI [25] was 51.5 µM, the TGI [26] was 47.4 µM and the TGI [27] was 32.1 µM. For the same compound, the TGI [28] was 29.5 µM, the TGI [29] was 30.9 µM and the TGI [30] was 3.45 µM. For the same compound, the TGI [31] was 38.9 µM, the TGI [32] was 23.4 µM and the TGI [33] was 37 µM. It also gave a TGI [34] of 24.2 µM, a TGI [35] of 31.9 µM and a TGI [36] of 7.27 µM. The TGI [37] was greater than 57.6 µM, the TGI [38] was 7.55 µM and the TGI [39] was 13.5 µM. For the same compound, the TGI [40] was 29.2 µM, the TGI [41] was 27.5 µM and the TGI [42] was 32.2 µM. For the same compound, the TGI [43] was 10.4 µM, the TGI [44] was 30.6 µM and the TGI [45] was 65.2 µM. The TGI [46] was 3.3 µM, the TGI [47] was 27.6 µM and the TGI [48] was 21.4 µM. It also gave a TGI [49] of 31.4 µM, a TGI [50] of 12.9 µM and a TGI [51] of 13.9 µM. It also gave a TGI [52] of 41.6 µM, a TGI [53] of 33.2 µM and a TGI [54] of 42.9 µM. It also gave a TGI [55] of 32.8 µM, a TGI [56] of 32.5 µM and a TGI [57] of 22.9 µM. It also gave a TGI [58] of 29.9 µM and a TGI [59] of 39.9 µM.
In the case of `CC(C)OP(=O)(OC(C)C)C(C(C)C)N(C)C(N)=NC#N` (stereo not given), the TGI [1] is reported as greater than 100 µM, the TGI [2] is reported as greater than 100 µM and the TGI [3] is reported as greater than 100 µM. It also gave a TGI [4] greater than 100 µM, a TGI [5] greater than 100 µM and a TGI [7] greater than 100 µM. The TGI [8] was greater than 100 µM, the TGI [9] was greater than 100 µM and the TGI [10] was greater than 100 µM. It also gave a TGI [11] greater than 100 µM, a TGI [12] greater than 100 µM and a TGI [13] greater than 100 µM. For the same compound, the TGI [14] was greater than 100 µM, the TGI [15] was greater than 100 µM and the TGI [16] was greater than 100 µM. It also gave a TGI [17] greater than 100 µM, a TGI [18] greater than 100 µM and a TGI [20] greater than 100 µM. It also gave a TGI [21] greater than 100 µM, a TGI [22] greater than 100 µM and a TGI [23] greater than 100 µM. For the same compound, the TGI [24] was greater than 100 µM, the TGI [25] was greater than 100 µM and the TGI [26] was greater than 100 µM. For the same compound, the TGI [27] was greater than 100 µM, the TGI [28] was greater than 100 µM and the TGI [29] was greater than 100 µM. It also gave a TGI [30] greater than 100 µM, a TGI [31] greater than 100 µM and a TGI [32] greater than 100 µM. The TGI [33] was greater than 100 µM, the TGI [34] was greater than 100 µM and the TGI [35] was greater than 100 µM. The TGI [36] was greater than 100 µM, the TGI [37] was greater than 100 µM and the TGI [38] was greater than 100 µM. For the same compound, the TGI [39] was greater than 100 µM, the TGI [40] was greater than 100 µM and the TGI [41] was greater than 100 µM. The TGI [42] was greater than 100 µM, the TGI [43] was greater than 100 µM and the TGI [44] was greater than 100 µM. The TGI [45] was greater than 100 µM, the TGI [46] was greater than 100 µM and the TGI [47] was greater than 100 µM. It also gave a TGI [48] greater than 100 µM, a TGI [49] greater than 100 µM and a TGI [50] greater than 100 µM. For the same compound, the TGI [51] was greater than 100 µM, the TGI [52] was greater than 100 µM and the TGI [53] was greater than 100 µM. For the same compound, the TGI [54] was greater than 100 µM, the TGI [55] was greater than 100 µM and the TGI [56] was greater than 100 µM. The TGI [57] was greater than 100 µM, the TGI [58] was greater than 100 µM and the TGI [59] was greater than 100 µM.
Compound `COc1c(OC)c(OC)c2c(=O)cc(-c3ccc(OC(C)C)cc3)oc2c1OC` has a TGI [1] greater than 55.4 µM, a TGI [2] greater than 50.3 µM and a TGI [3] greater than 50.2 µM. The TGI [4] was greater than 53.2 µM, the TGI [5] was greater than 53.4 µM and the TGI [6] was greater than 49.3 µM. For the same compound, the TGI [7] was greater than 56.8 µM, the TGI [8] was greater than 54.9 µM and the TGI [9] was greater than 50.7 µM. The TGI [10] was greater than 58.9 µM, the TGI [11] was 44.6 µM and the TGI [12] was 23.6 µM. For the same compound, the TGI [13] was greater than 53.8 µM, the TGI [14] was greater than 26.2 µM and the TGI [15] was greater than 50.8 µM. The TGI [16] was 52.5 µM, the TGI [17] was 51.2 µM and the TGI [18] was 23.7 µM. The TGI [19] was greater than 51.9 µM, the TGI [20] was 36.9 µM and the TGI [21] was 23.4 µM. The TGI [22] was greater than 54.2 µM, the TGI [23] was greater than 49.4 µM and the TGI [24] was 32.3 µM. For the same compound, the TGI [25] was greater than 51.8 µM, the TGI [26] was 49.5 µM and the TGI [27] was 37.5 µM. For the same compound, the TGI [28] was greater than 55.8 µM, the TGI [29] was greater than 50.5 µM and the TGI [30] was greater than 53.5 µM. For the same compound, the TGI [31] was 23.8 µM, the TGI [32] was greater than 49.9 µM and the TGI [33] was greater than 51.1 µM. The TGI [34] was greater than 52 µM, the TGI [35] was greater than 56.6 µM and the TGI [36] was 43.1 µM. The TGI [37] was greater than 100 µM, the TGI [38] was 32 µM and the TGI [39] was 13 µM. It also gave a TGI [40] greater than 58.2 µM, a TGI [41] of 35.1 µM and a TGI [42] greater than 47.3 µM. It also gave a TGI [43] of 35.8 µM, a TGI [44] greater than 58.8 µM and a TGI [45] greater than 100 µM. The TGI [46] was 25.5 µM, the TGI [47] was greater than 54.8 µM and the TGI [48] was greater than 48.7 µM. The TGI [49] was greater than 53.5 µM, the TGI [50] was greater than 56.5 µM and the TGI [51] was greater than 55.2 µM. It also gave a TGI [52] greater than 53.9 µM, a TGI [53] greater than 49.9 µM and a TGI [54] greater than 68.5 µM. For the same compound, the TGI [55] was 42.5 µM, the TGI [56] was greater than 100 µM and the TGI [57] was greater than 49.2 µM. The TGI [58] was greater than 53.6 µM and the TGI [59] was 61.6 µM.
